According to patent US20150125509A1, “TREATMENT OF FISH POPULATIONS WITH LUFENURON” (priority 2012, published 2015):

Assays:
sea louse = conditions: injectable, WO99/063824; cited from earlier work
L. salmonis = experiment: Example 1: in-feed treatment in sea water, natural sea louse infestation, L. salmonis counts; format: in vivo, Lepeophtheirus salmonis on Atlantic Salmon, S. salar; conditions: for L. salmonis: all stages, Treated, average group counts / L. salmonis: pre- & adults, Efficacy / L. salmonis: pre- & adults, Treated, average group counts: sea water
Method: Three groups of 150 salmon (Atlantic Salmon, S. salar) of average weight 238 g were treated with medicated pellets containing lufenuron at a dose of respectively 3, 5 and 10 mg/kg/day during 7 consecutive days. The medicated pellets were prepared by dry coating commercially available fish feed pellets with a lufenuron-containing pre-mix to reach a content of 0.03, 0.05 and 0.1% (w/w) lufenuron in the fish feed and administered at a 1% feeding rate. The treatment was carried out in sea water.
Each group was maintained in a separate cage. A fourth cage containing 150 salmon of average weight 238 g was added to the study as a non-treated control group.
After treatment, the fish were exposed to natural sea louse infestation for a period of 9 months. During the study the water temperature varied between 4 and 12° C. Fish weight and sea louse numbers were assessed 1 day post-treatment, 1 week post-treatment and afterwards on a monthly basis until month 9. Counts were conducted on 10 fish at each sampling occasion. The numbers of chalimus, pre-adults and adult male, mobile and mature female L. salmonis were recorded for each fish. No distinction was made between chalimus stages I-IV or between pre-adult and adult male stages.
Efficacy was calculated using the formula:
% Efficacy=100−(100×mean of treatment group/mean of control).

[1] = 3 mg/kg/day 7 days in-feed, 1 month post-treatment
[2] = 3 mg/kg/day 7 days in-feed, 1 week post-treatment
[3] = 3 mg/kg/day 7 days in-feed, 2 month post-treatment
[4] = 3 mg/kg/day 7 days in-feed, 3 month post-treatment
[5] = 3 mg/kg/day 7 days in-feed, 4 month post-treatment
[6] = 3 mg/kg/day 7 days in-feed, 5 month post-treatment
[7] = 3 mg/kg/day 7 days in-feed, 6 month post-treatment
[8] = 3 mg/kg/day 7 days in-feed, 1 day post-treatment
[9] = 5 mg/kg/day 7 days in-feed, 1 month post-treatment
[10] = 5 mg/kg/day 7 days in-feed, 1 week post-treatment
[11] = 5 mg/kg/day 7 days in-feed, 2 month post-treatment
[12] = 5 mg/kg/day 7 days in-feed, 3 month post-treatment
[13] = 5 mg/kg/day 7 days in-feed, 4 month post-treatment
[14] = 5 mg/kg/day 7 days in-feed, 5 month post-treatment
[15] = 5 mg/kg/day 7 days in-feed, 6 month post-treatment
[16] = 5 mg/kg/day 7 days in-feed, 7 month post-treatment
[17] = 5 mg/kg/day 7 days in-feed, 8 month post-treatment
[18] = 5 mg/kg/day 7 days in-feed, 9 month post-treatment
[19] = 5 mg/kg/day 7 days in-feed, 1 day post-treatment
[20] = 10 mg/kg/day 7 days in-feed, 1 month post-treatment
[21] = 10 mg/kg/day 7 days in-feed, 1 week post-treatment
[22] = 10 mg/kg/day 7 days in-feed, 2 month post-treatment
[23] = 10 mg/kg/day 7 days in-feed, 3 month post-treatment
[24] = 10 mg/kg/day 7 days in-feed, 4 month post-treatment
[25] = 10 mg/kg/day 7 days in-feed, 5 month post-treatment
[26] = 10 mg/kg/day 7 days in-feed, 6 month post-treatment
[27] = 10 mg/kg/day 7 days in-feed, 7 month post-treatment
[28] = 10 mg/kg/day 7 days in-feed, 8 month post-treatment
[29] = 10 mg/kg/day 7 days in-feed, 9 month post-treatment
[30] = 10 mg/kg/day 7 days in-feed, 1 day post-treatment

Compound: O=C(NC(=O)c1c(F)cccc1F)Nc1cc(Cl)c(OC(F)(F)C(F)C(F)(F)F)cc1Cl (centres unmarked) [lufenuron, N-{[2,5-Dichlor-4-(1,1,2,3,3,3-hexafluorpropoxy)phenyl]carbamoyl}-2,6-difluorbenzamid]
- protection against sea louse infestation after injection (sea louse): 128 days
- L. salmonis: all stages, Treated, average group counts (L. salmonis; [1]): 0.00
- L. salmonis: pre- & adults, Efficacy (L. salmonis; [1]): 100%
- L. salmonis: pre- & adults, Treated, average group counts (L. salmonis; [1]): 0.00
- L. salmonis: all stages, Treated, average group counts (L. salmonis; [2]): 0.10
- L. salmonis: pre- & adults, Treated, average group counts (L. salmonis; [2]): 0.10
- L. salmonis: all stages, Treated, average group counts (L. salmonis; [3]): 0.30
- L. salmonis: pre- & adults, Efficacy (L. salmonis; [3]): 95%
- L. salmonis: pre- & adults, Treated, average group counts (L. salmonis; [3]): 0.10
- L. salmonis: all stages, Treated, average group counts (L. salmonis; [4]): 0.20
- L. salmonis: pre- & adults, Efficacy (L. salmonis; [4]): 95%
- L. salmonis: pre- & adults, Treated, average group counts (L. salmonis; [4]): 0.10
- L. salmonis: all stages, Treated, average group counts (L. salmonis; [5]): 0.00
- L. salmonis: pre- & adults, Efficacy (L. salmonis; [5]): 100%
- L. salmonis: pre- & adults, Treated, average group counts (L. salmonis; [5]): 0.00
- L. salmonis: all stages, Treated, average group counts (L. salmonis; [6]): 0.10
- L. salmonis: pre- & adults, Efficacy (L. salmonis; [6]): 97%
- L. salmonis: pre- & adults, Treated, average group counts (L. salmonis; [6]): 0.10
- L. salmonis: all stages, Treated, average group counts (L. salmonis; [7]): 1.30
- L. salmonis: pre- & adults, Efficacy (L. salmonis; [7]): 50%
- L. salmonis: pre- & adults, Treated, average group counts (L. salmonis; [7]): 1.30
- L. salmonis: all stages, Treated, average group counts (L. salmonis; [8]): 0.10
- L. salmonis: pre- & adults, Treated, average group counts (L. salmonis; [8]): 0.10
- L. salmonis: all stages, Treated, average group counts (L. salmonis; [9]): 1.90
- L. salmonis: pre- & adults, Efficacy (L. salmonis; [9]): 90%
- L. salmonis: pre- & adults, Treated, average group counts (L. salmonis; [9]): 0.10
- L. salmonis: all stages, Treated, average group counts (L. salmonis; [10]): 0.00
- L. salmonis: pre- & adults, Treated, average group counts (L. salmonis; [10]): 0.00
- L. salmonis: all stages, Treated, average group counts (L. salmonis; [11]): 0.00
- L. salmonis: pre- & adults, Efficacy (L. salmonis; [11]): 100%
- L. salmonis: pre- & adults, Treated, average group counts (L. salmonis; [11]): 0.00
- L. salmonis: all stages, Treated, average group counts (L. salmonis; [12]): 0.20
- L. salmonis: pre- & adults, Efficacy (L. salmonis; [12]): 91%
- L. salmonis: pre- & adults, Treated, average group counts (L. salmonis; [12]): 0.20
- L. salmonis: all stages, Treated, average group counts (L. salmonis; [13]): 0.10
- L. salmonis: pre- & adults, Efficacy (L. salmonis; [13]): 96%
- L. salmonis: pre- & adults, Treated, average group counts (L. salmonis; [13]): 0.10
- L. salmonis: all stages, Treated, average group counts (L. salmonis; [14]): 0.10
- L. salmonis: pre- & adults, Efficacy (L. salmonis; [14]): 97%
- L. salmonis: pre- & adults, Treated, average group counts (L. salmonis; [14]): 0.10
- L. salmonis: all stages, Treated, average group counts (L. salmonis; [15]): 0.60
- L. salmonis: pre- & adults, Efficacy (L. salmonis; [15]): 77%
- L. salmonis: pre- & adults, Treated, average group counts (L. salmonis; [15]): 0.60
- L. salmonis: all stages, Treated, average group counts (L. salmonis; [16]): 1.80
- L. salmonis: pre- & adults, Efficacy (L. salmonis; [16]): 88%
- L. salmonis: pre- & adults, Treated, average group counts (L. salmonis; [16]): 0.60
- L. salmonis: all stages, Treated, average group counts (L. salmonis; [17]): 0.50
- L. salmonis: pre- & adults, Efficacy (L. salmonis; [17]): 90%
- L. salmonis: pre- & adults, Treated, average group counts (L. salmonis; [17]): 0.50
- L. salmonis: all stages, Treated, average group counts (L. salmonis; [18]): 0.40
- L. salmonis: pre- & adults, Efficacy (L. salmonis; [18]): 94%
- L. salmonis: pre- & adults, Treated, average group counts (L. salmonis; [18]): 0.40
- L. salmonis: all stages, Treated, average group counts (L. salmonis; [19]): 0.00
- L. salmonis: pre- & adults, Treated, average group counts (L. salmonis; [19]): 0.00
- L. salmonis: all stages, Treated, average group counts (L. salmonis; [20]): 3.10
- L. salmonis: pre- & adults, Efficacy (L. salmonis; [20]): 100%
- L. salmonis: pre- & adults, Treated, average group counts (L. salmonis; [20]): 0.00
- L. salmonis: all stages, Treated, average group counts (L. salmonis; [21]): 0.20
- L. salmonis: pre- & adults, Treated, average group counts (L. salmonis; [21]): 0.00
- L. salmonis: all stages, Treated, average group counts (L. salmonis; [22]): 0.00
- L. salmonis: pre- & adults, Efficacy (L. salmonis; [22]): 100%
- L. salmonis: pre- & adults, Treated, average group counts (L. salmonis; [22]): 0.00
- L. salmonis: all stages, Treated, average group counts (L. salmonis; [23]): 0.10
- L. salmonis: pre- & adults, Efficacy (L. salmonis; [23]): 95%
- L. salmonis: pre- & adults, Treated, average group counts (L. salmonis; [23]): 0.10
- L. salmonis: all stages, Treated, average group counts (L. salmonis; [24]): 0.00
- L. salmonis: pre- & adults, Efficacy (L. salmonis; [24]): 100%
- L. salmonis: pre- & adults, Treated, average group counts (L. salmonis; [24]): 0.00
- L. salmonis: all stages, Treated, average group counts (L. salmonis; [25]): 0.00
- L. salmonis: pre- & adults, Efficacy (L. salmonis; [25]): 100%
- L. salmonis: pre- & adults, Treated, average group counts (L. salmonis; [25]): 0.00
- L. salmonis: all stages, Treated, average group counts (L. salmonis; [26]): 0.30
- L. salmonis: pre- & adults, Efficacy (L. salmonis; [26]): 96%
- L. salmonis: pre- & adults, Treated, average group counts (L. salmonis; [26]): 0.10
- L. salmonis: all stages, Treated, average group counts (L. salmonis; [27]): 0.80
- L. salmonis: pre- & adults, Efficacy (L. salmonis; [27]): 98%
- L. salmonis: pre- & adults, Treated, average group counts (L. salmonis; [27]): 0.10
- L. salmonis: all stages, Treated, average group counts (L. salmonis; [28]): 0.10
- L. salmonis: pre- & adults, Efficacy (L. salmonis; [28]): 98%
- L. salmonis: pre- & adults, Treated, average group counts (L. salmonis; [28]): 0.10
- L. salmonis: all stages, Treated, average group counts (L. salmonis; [29]): 0.00
- L. salmonis: pre- & adults, Efficacy (L. salmonis; [29]): 100%
- L. salmonis: pre- & adults, Treated, average group counts (L. salmonis; [29]): 0.00
- L. salmonis: all stages, Treated, average group counts (L. salmonis; [30]): 0.00
- L. salmonis: pre- & adults, Treated, average group counts (L. salmonis; [30]): 0.00
- protected the fish against sea louse infestation until (time post-treatment) (L. salmonis; Example 1, 3 mg/kg treatment): 5 months
- protected the fish against sea louse infestation until (time post treatment) (L. salmonis; Example 1, 5 mg/kg treatment): 9 months
- efficacy against sea lice at all time points (L. salmonis; Example 1, 10 mg/kg group): more than 95%
- protected the fish against sea louse infestation up to the end of the study (time post treatment) (L. salmonis; Example 1, 10 mg/kg treatment): 9 months
